According to article PMC7156458, “Synthetic biology based construction of biological activity-related library of fungal decalin-containing diterpenoid pyrones” (Nature Communications, 2020):
Like-named read-outs stand apart in the source and are kept apart here.

What was measured:
MCF-7 cells = test: cell cytotoxic effects against MCF-7 cells (72 h), A490; type: cell-based, human; settings: MCF-7, 72 h
[1] = cytotoxicity in Drosophila DL1 cells; type: cell-based; settings: Drosophila, DL1 cells (embryonic macrophage-derived), DL1 cells
Protocol: (§1) We screened the DDPs on the Drosophila assay system for cytotoxicity, inhibitory activity of innate immune signalling and insecticidal activity. The cytotoxicity of the DDPs was evaluated using two cell lines, embryonic macrophage-derived DL1 cells[58]–[60] and larval blood cell-derived l(2)mbn cells, and their IC50 values are listed in Supplementary Table 23.

DL1 cells = test: cytotoxicity in Drosophila DL1 cells; type: cell-based; settings: DL1 cells; for IC50: Drosophila melanogaster, cytotoxicity
Protocol: as §1

[2] = cytotoxicity in Drosophila l(2)mbn cells; type: cell-based; settings: Drosophila, l(2)mbn cells (larval blood cell-derived)
Protocol: as §1

l(2)mbn cells = test: cytotoxicity in Drosophila l(2)mbn cells; type: cell-based; settings: for Luminescence Raw1: replicate 1; for Luminescence Raw2: replicate 2
Protocol: as §1

[3] = tested on: human immunodeficiency virus-1 (HIV-1); test: anti-HIV MAGI assay; type: cell-based; settings: Human immunodeficiency virus 1, MAGI, anti-HIV; average of numeric determinations; read-out: Avg. EC50
From the text: We examined the inhibitory activities of DDPs against various species of bacteria (both gram-negative and gram-positive bacteria), fungi and viruses. […] In contrast, preliminary screening of the DDPs for anti-viral agents with hepatitis B virus (HBV), measles virus (MV), Epstein-Barr virus (EBV), herpes simplex virus (HSV) and human immunodeficiency virus-1 (HIV-1) indicated their selective inhibition of HIV.

MAGI cells = test: cytotoxicity in the anti-HIV assay (CC50); type: cell-based; settings: single determinations
[4] = replicate 1, relative to DMSO 1%, read-out: % viability, viability 1
[5] = replicate 2, relative to DMSO 1%, read-out: % viability, viability 2

C=C1CCC2C(C)(CC(=O)C=C(C)C)C(O)CCC2(C)C1Cc1c(O)c(C)c(C)oc1=O (stereo not shown) [Compound 7]
viability at 0.1 µM (MCF-7 cells; Homo sapiens, MCF7, 72 h, 0.1 µM (DMSO 0.002%), read-out: A490 (control =1) ave): 81% | viability at 1 µM (MCF-7 cells; Homo sapiens, MCF7, 72 h, 1 µM (DMSO 0.02%), read-out: A490 (control =1) ave): 92.4% | viability at 10 µM (MCF-7 cells; Homo sapiens, MCF7, 72 h, 10 µM (DMSO 0.2%), read-out: A490 (control =1) ave): 104% | A490 ave (MCF-7 cells; 0.1 µM (DMSO 0.002%), control 1.064): 0.862 | A490 ave (MCF-7 cells; 1 µM (DMSO 0.02%), control 1.104): 1.021 | A490 ave (MCF-7 cells; 10 µM (DMSO 0.2%), control 1.049): 1.095 | viability at 0.04 µM [1, 4]: 129% | viability at 0.04 µM [1, 5]: 132% | viability at 0.2 µM [1, 4]: 133% | viability at 0.2 µM [1, 5]: 135% | viability at 1 µM [1, 4]: 120% | viability at 1 µM [1, 5]: 138% | viability at 4 µM [1, 4]: 83.5% | viability at 4 µM [1, 5]: 117% | viability at 10 µM [1, 4]: 36.5% | viability at 10 µM [1, 5]: 39.8% | viability at 20 µM [1, 4]: 13.4% | viability at 20 µM [1, 5]: 14.2% | Luminescence Raw1 (DL1 cells; 0.04 µM, replicate 1): 2666434 | Luminescence Raw2 (DL1 cells; 0.04 µM, replicate 2): 2708996 | Luminescence Raw1 (DL1 cells; 0.2 µM, replicate 1): 2732080 | Luminescence Raw2 (DL1 cells; 0.2 µM, replicate 2): 2789792 | Luminescence Raw1 (DL1 cells; 1 µM, replicate 1): 2478515 | Luminescence Raw2 (DL1 cells; 1 µM, replicate 2): 2838847 | Luminescence Raw1 (DL1 cells; 4 µM, replicate 1): 1720040 | Luminescence Raw2 (DL1 cells; 4 µM, replicate 2): 2405658 | Luminescence Raw1 (DL1 cells; 10 µM, replicate 1): 751779 | Luminescence Raw2 (DL1 cells; 10 µM, replicate 2): 819211 | Luminescence Raw1 (DL1 cells; 20 µM, replicate 1): 275091 | Luminescence Raw2 (DL1 cells; 20 µM, replicate 2): 293480 | IC50 (DL1 cells; average of two replicates, read-out: IC50 Average): 8.75 µM | IC50 (DL1 cells; average±SEM, read-out: IC50): 8.75 ± 0.64 µM | IC50 (DL1 cells; replicate 1, read-out: IC50 (1)): 8.12 µM | IC50 (DL1 cells; replicate 2, read-out: IC50 (2)): 9.39 µM | viability at 0.04 µM [2, 4]: 135% | viability at 0.04 µM [2, 5]: 130% | viability at 0.2 µM [2, 4]: 129% | viability at 0.2 µM [2, 5]: 135% | viability at 1 µM [2, 4]: 139% | viability at 1 µM [2, 5]: 132% | viability at 4 µM [2, 4]: 129% | viability at 4 µM [2, 5]: 131% | viability at 10 µM [2, 4]: 121% | viability at 10 µM [2, 5]: 115% | viability at 20 µM [2, 4]: 40.7% | viability at 20 µM [2, 5]: 39.5% | Luminescence Raw1 (l(2)mbn cells; 0.04 µM): 3452362 | Luminescence Raw2 (l(2)mbn cells; 0.04 µM): 3328631 | Luminescence Raw1 (l(2)mbn cells; 0.2 µM): 3304462 | Luminescence Raw2 (l(2)mbn cells; 0.2 µM): 3461380 | Luminescence Raw1 (l(2)mbn cells; 1 µM): 3578980 | Luminescence Raw2 (l(2)mbn cells; 1 µM): 3388873 | Luminescence Raw1 (l(2)mbn cells; 4 µM): 3312398 | Luminescence Raw2 (l(2)mbn cells; 4 µM): 3370476 | Luminescence Raw1 (l(2)mbn cells; 10 µM): 3097048 | Luminescence Raw2 (l(2)mbn cells; 10 µM): 2956371 | Luminescence Raw1 (l(2)mbn cells; 20 µM): 1044161 | Luminescence Raw2 (l(2)mbn cells; 20 µM): 1013149 | IC50 (l(2)mbn cells; Drosophila melanogaster, cytotoxicity, average±SEM, read-out: IC50): > 20 µM | EC50 [3]: 0.163 µM | Cytotoxicity (MAGI cells): >10 µM
